How the values were obtained:
[1] = In vivo tomographic imaging (FMT 2500) after intravenous injection; conditions: 2 nmoles intravenous, SKH-1 E female mice
Procedure: Two SKH-1 E female mice (9 weeks old) were injected with 2 nmoles of compound 44. Tomographic images of the whole body of the mouse were taken at 1, 15, 30 and 45 minutes and 1, 2 and 3 hours.

[2] = Optical properties of silaxanthenium fluorochromes (absorption/emission maxima, relative brightness); assay type: physicochemical; conditions: for Abs. λmax / Em. Λmax: 1×PBS, 1 cm square cuvette; for Relative Fluorescence: brightness (fluorescence intensity / absorption at λmax) normalized to CY1, 1×PBS
From the text: The relative brightness is defined by the fluorescence intensity of a solution of the fluorochrome in a 1 cm square cuvette when excited at its wavelength of maximum absorption divided by the absorption of the same sample at the wavelength of maximum absorption. The three examples shown with a S atom in the X position of Formula II are red shifted about 20 nm relative to three examples with the S atom in the Y or Z positions.
This example summarizes in Table 3 the absorption and emission characteristics of some exemplary silaxanthenium (SX) fluorochromes relative to a cell impermeable cyanine dye (sulfonated Cy5 analog) CY1. Absorption and emission characteristics were measured in 1×PBS in a 1 cm square cuvette. Relative fluorescence (brightness) was measured as in Example 8 and normalized to that of compound CY1.

4T1 cells = assay: Cellular uptake and washout by flow cytometry and fluorescence microscopy; assay type: cell-based; conditions: for cellular uptake: 1 uM, 30 min, 37° C.; for dye still remaining after washout: 1.5 h washout, flow cytometry
Procedure: (§1) Two isomeric thienyl Si-Rho dyes 88 and 89, were synthesized using the methods described previously. The two isomeric compounds, which are of identical molecular weight and molecular formula, have absorption and emission maxima of 652 nm and 668 nm (88) and 667 nm and 681 nm (89). Compounds were analyzed with two different filter sets by flow cytometry and also by fluorescence microscopy for cellular uptake and washout. Trypsin EDTA-detached 4T1 at 0.5 mil cells/mL culture medium were incubated with 1 uM 88 or 89 for 30 min at 37° C. Cells were washed 1× with PBS and analyzed by flow cytometry with a 705/70 nm emission filter for 88 and a 712/21 nm emission filter for 89 and by fluorescence microscopy.

[3] = Absorption and emission maxima of two isomeric thienyl dyes; assay type: physicochemical
Procedure: as §1

chymotrypsin = assay: Fluorescence activation of internally quenched probe upon protease cleavage; assay type: biochemical; conditions: 1×PBS, 37° C., 4 h
From the text: FIG. 6A illustrates fluorescence activation upon enzyme cleavage of an internally quenched pair of silaxanthenium fluorochromes separated by an enzyme cleavable peptide sequence (Compound 78). Compound 78 was synthesized by conjugating two carboxylic acid dyes to lysine side chain amines in the peptide sequence using HATU and triethylamine. The quenched probe was purified by HPLC. Absorbance and fluorescence, measured on a Cary 50 UV-vis spectrophotometer (Varian) and a Cary Eclipse fluorescence spectrophotometer, respectively, of the quenched (dashed lines) and activated (cleaved by chymotrypsin in 1×PBS, solid lines) fluorochromes are shown in FIG. 6B.
A 22-fold increase in fluorescence intensity was observed. […] Trypsin EDTA-detached 4T1 were seeded in a 6-well tissue culture plate at 0.5 mil cells/2 mL of culture medium were incubated with 1 or 5 uM of 92, 93, or 91 for 21 h at 37° C. Cells were washed 1× with PBS, detached, and analyzed by FC and FLM (Cy5 filter). […] Trypsin EDTA-detached 4T1 cells were implanted 1.5 mil/site approximately 1 week prior to imaging. 92 was injected retro-orbitally at 4 nmol and imaged by FMT at 5 and 24 h.

KB cells = assay: Cell uptake of glucosamine conjugated SX compound by fluorescence microscopy and flow cytometry; assay type: cell-based; conditions: 30 μM, 30 minutes
Procedure: This example illustrates cell uptake of a biomolecule (glucosamine) conjugated SX compound, compound 67 in KB cells. KB cells were cultured in media for 2 h then incubated with 30 μM of compound 67 for 30 minutes before analysis of the cells by fluorescence microscopy and flow cytometry with appropriate filter sets for the two different fluorescent dyes. As a control, cells were also incubated with the commercial fluorescent glucosamine derivative 2-NBDG also at 30 μM.

SMILES | Abs. λmax [2] [nm] | Em. Λmax [2] [nm] | Relative Fluorescence [2] | also measured
Cc1cc(C(=O)O)ccc1C1=C2C=CC(=[N+]3CCCC3)C=C2[Si](C)(C)c2cc(N3CCCC3)ccc21 [Compound 44, 3,6-bis(pyrridolin-1-yl)-9-(2-methyl-4-carboxyphenyl)-10,10-dimethyl-10-silaxanthenium] | 655 | 669 | 1.54 | wash out of the untargeted compound [1]: ≤ 3 h; biodistribution by tomographic imaging ([1]; imaged 1 minute to 3 hours): Rapid accumulation of the fluorochrome compound can be seen in the heart region followed by slower accumulation to other areas of the body
Cc1c(C(=O)O)sc(C2=C3C=CC(=[N+](C)C)C=C3[Si](C)(C)c3cc(N(C)C)ccc32)c1Br [Compound 66] |  |  |  | red shift ([2]; relative to compound 17 (S moved from Z to X position, bromine substituent added)): 23 nm
CN(C)c1ccc2c(c1)[Si](C)(C)c1cc(N(C)C)ccc1[C+]2c1ccsc1 [Compound 88] |  |  |  | cellular uptake (4T1 cells): Significant uptake; dye still remaining after washout (4T1 cells): approximately one third; absorption maximum [3]: 652 nm; emission maximum [3]: 668 nm
CC(C)C[C@@H](NC(=O)[C@@H](Cc1ccccc1)NC(=O)CNC(=O)[C@@H](CCCCNC(=O)c1cc(C2=C3C=CC(=[N+](C)C)C=C3[Si](C)(C)c3cc(N(C)C)ccc32)c(C(=O)[O-])s1)NC(=O)CCC(=O)O)C(=O)NCC(=O)N[C@H](CCCCNC(=O)c1cc(C2=C3C=CC(=[N+](C)C)C=C3[Si](C)(C)c3cc(N(C)C)ccc32)c(C(=O)[O-])s1)C(N)=O [Compound 91] |  |  |  | increase in fluorescence intensity (chymotrypsin): 22 fold
Cc1csc(C(=O)O)c1C1=C2C=CC(=[N+](C)C)C=C2[Si](C)(C)c2cc(N(C)C)ccc21 [Compound 17, 3,6-bis(dimethylamino)-9-(2-carboxy-4-methyl-thien-3-yl)-10,10-dimethyl-10-silaxanthenium chloride] | 649 | 666 | 1.11 | 
Cc1ccccc1C1=C2C=CC(=[N+](C)C)C=C2[Si](C)(C)c2cc(N(C)C)ccc21 [Compound 77] | 650 | 666 | 1.20 | 
CN(C)c1ccc2c(c1)[Si](C)(C)c1cc(N(C)C)ccc1[C+]2c1cccs1 [Compound 89] |  |  |  | cellular uptake (4T1 cells): Significant uptake; dye still remaining after washout (4T1 cells): approximately one third; absorption maximum [3]: 667 nm; emission maximum [3]: 681 nm
O=[N+]([O-])c1ccc(N[C@H]2C(O)O[C@H](CO)[C@@H](O)[C@@H]2O)c2nonc12 (stereo partly shown) [Compound 2-NBDG, reference compound] |  |  |  | cell uptake (KB cells): taken up by the cells; quantification of cell fluorescence by flow cytometry (KB cells): in normal analysis range
Cc1cc(C(=O)O)ccc1C1=C2C=CC(=[N+]3CCOCC3)C=C2[Si](C)(C)c2cc(N3CCOCC3)ccc21 [Compound 45, 3,6-bis(morpholino)-9-(2-methyl-4-carboxyphenyl)-10,10-dimethyl-10-silaxanthenium] | 651 | 670 | 0.75 | 
Cc1cc(C(=O)N[C@@H]2[C@@H](O)[C@H](O)[C@@H](CO)O[C@@H]2O)ccc1C1=C2C=CC(=[N+]3CCCC3)C=C2[Si](C)(C)c2cc(N3CCCC3)ccc21 [Compound 67] |  |  |  | cell uptake (KB cells): taken up by the cells; quantification of cell fluorescence by flow cytometry (KB cells): detector saturation
Cc1c(C2=C3C=CC(=[N+](C)C)C=C3[Si](C)(C)c3cc(N(C)C)ccc32)csc1C(=O)O [Compound 18, 3,6-bis(dimethylamino)-9-(2-carboxy-3-methyl-thien-4-yl)-10,10-dimethyl-10-silaxanthenium chloride] | 653 | 668 | 1.02 | 
CN(C)c1ccc2c(c1)[Si](C)(C)C1=CC(=[N+](C)C)C=CC1=C2c1ccc(C(=O)O)s1 [Compound 65, 3,6-bis(dimethylamino)-9-(2-carboxy-thien-5-yl)-10,10-dimethyl-10-silaxanthenium chloride] | 669 | 683 | 0.05 | 

From patent US9649389B2, “Substituted silaxanthenium red to near-infrared fluorochromes for in vitro and in vivo imaging and detection” (VisEn Medical, Inc., priority 2013, dated 2017)
